The target of data set [1] is T1, human DAT (Homo sapiens, UniProt Q01959).
T1 construct: gene SLC6A3; full-length codon-optimized human DAT with N-terminal mScarlet-I tag (subcloned from EYFP-DAT), stably expressed in TAAR1 KO HEK293 cells
In words: [3H]dopamine uptake inhibition, intact cells. The class given is cell-based.

Data set [2] has as its target T1, human DAT. Briefly: […]RTI-55 competition binding, cell membranes. The following applies: read-out: Inhibition of [^125I]RTI-55 Binding pKi ± SD (n) (converted).
Substrate in data set [3]: NCCc1ccc(O)c(O)c1
Briefly: cells, lysate or membranes. The following applies: TAAR1-/- DAT cells, vehicle pretreatment, 10 min uptake; labelled compound; n=4.

Consider `CCN(C[C@H]1COC(N)=N1)c1ccccc1` [RO5166017], for which the IC50 on human DAT [1] (read-out: Inhibition of [^3H]DA Uptake pIC50 ± SD (n) (converted)) was 17.4 µM. The Ki at human DAT [2] was 21.9 µM.
Turning to `CC[C@@H](C[C@H]1COC(N)=N1)c1ccccc1` [RO5256390], the “Inhibition of [^3H]DA Uptake pIC50 ± SD (n)” value at human DAT [1] (20 nM [3H]DA, 10 min preincubation, 10 min uptake, 25 °C, Krebs-HEPES buffer, n=6) worked out at 5.73 ± 0.23.

B1: human DAT (Homo sapiens) (protein)
chain: MSKSKCSVGLMSSVVAPAKEPNAVGPKEVELILVKEQNGVQLTSSTLTNPRQSPVEAQDRETWGKKIDFLLSVIGFAVDLANVWRFPYLCYKNGGGAFLVPYLLFMVIAGMPLFYMELALGQFNREGAAGVWKICPILKGVGFTVILISLYVGFFYNVIIAWALHYLFSSFTTELPWIHCNNSWNSPNCSDAHPGDSSGDSSGLNDTFGTTPAAEYFERGVLHLHQSHGIDDLGPPRWQLTACLVLVIVLLYFSLWKGVKTSGKVVWITATMPYVVLTALLLRGVTLPGAIDGIRAYLSVDFYRLCEASVWIDAATQVCFSLGVGFGVLIAFSSYNKFTNNCYRDAIVTTSINSLTSFSSGFVVFSFLGYMAQKHSVPIGDVAKDGPGLIFIIYPEAIATLPLSSAWAVVFFIMLLTLGIDSAMGGMESVITGLIDEFQLLHRHRELFTLFIVLATFLLSLFCVTNGGIYVFTLLDHFAAGTSILFGVLIEAIGVAWFYGVGQFSDDIQQMTGQRPSLYWRLCWKLVSPCFLLFVVVVSIVTFRPPHYGAYIFPDWANALGWVIATSSMAMVPIYAAYKFCSLPGSFREKLAYAIAPEKDRELVDRGEVRQFTLRHWLKV
Broadly, the Km is the concentration of substrate that gives half-maximal velocity. The Vmax is the rate approached at saturating substrate. Take B1: in data set [3], the Michaelis-Menten constant (Km) amounted to 0.631 ± 0.26 µM and the Vmax was found to be 1.63e-06 µmol/min/mg.

Values taken from paper PMC12597562 (Molecular Pharmacology, 2025).
